Assay results reported in PubChem BioAssay (NCI).
Values joined by “and” are separate entries in the source; they are usually repeats but may differ in a detail not shown here. Equal entries are not always repeated.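 Exposure lasted 48 hours, with cells grown in 96-well plates and compounds tested at five concentrations. GI50 is the concentration that inhibits growth by half. At the TGI there is no net growth.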

How the values were obtained:
Assay in all cases: NCI anticancer screen, dose series, 48 h
SK-MEL-28 melanoma = system: SK-MEL-28 melanoma
ACHN renal = system: ACHN renal
CAKI-1 renal = system: CAKI-1 renal
HOP-62 NSCLC = system: HOP-62 NSCLC
SNB-19 CNS = system: SNB-19 CNS
SNB-75 CNS = system: SNB-75 CNS
OVCAR-5 ovarian = system: OVCAR-5 ovarian
LOX IMVI melanoma = system: LOX IMVI melanoma
MDA-MB-435 = system: MDA-MB-435
BT-549 breast = system: BT-549 breast

| Structure (SMILES) | TGI (SK-MEL-28 melanoma) | TGI (ACHN renal) | TGI (CAKI-1 renal) | TGI (HOP-62 NSCLC) | TGI (SNB-19 CNS) | TGI (SNB-75 CNS) | TGI (OVCAR-5 ovarian) | TGI (LOX IMVI melanoma) | TGI (MDA-MB-435) | TGI (BT-549 breast) | GI50 (SK-MEL-28 melanoma) | GI50 (OVCAR-5 ovarian) | GI50 (ACHN renal) | GI50 (CAKI-1 renal) | GI50 (LOX IMVI melanoma) | GI50 (HOP-62 NSCLC) | GI50 (SNB-19 CNS) | GI50 (BT-549 breast) | GI50 (SNB-75 CNS) | GI50 (MDA-MB-435) |
| --- | --- | --- | --- | --- | --- | --- | --- | --- | --- | --- | --- | --- | --- | --- | --- | --- | --- | --- | --- | --- |
| Fc1ccc(C2SCc3nc4ccccc4n32)cc1F (stereo not drawn) | 66.7 µM | > 100 µM | > 100 µM | > 100 µM | > 100 µM | 56.9 µM |  |  |  |  |  |  |  |  |  |  |  |  |  |  |
| N#Cc1ccc(C(C2C(=O)NC(=O)NC2=O)C2C(=O)NC(=O)NC2=O)cc1 | > 100 µM | > 100 µM | > 100 µM | > 100 µM | > 100 µM |  | > 100 µM | > 100 µM |  |  |  |  |  |  |  |  |  |  |  |  |
| CCCCN(CCCC)CC(C(=O)Nc1ccc([N+](=O)[O-])cc1[N+](=O)[O-])/C(C)=N\NC(=O)C[N+](C)(C)C (stereo not drawn) | > 100 µM | > 100 µM | > 100 µM | > 100 µM | > 100 µM | > 100 µM | > 100 µM | > 100 µM |  |  |  |  |  |  |  |  |  |  |  |  |
| O=C(O)c1ccc(Oc2nc3ccccc3s2)cc1 | > 100 µM | > 100 µM | > 100 µM | > 100 µM | > 100 µM |  | > 100 µM | > 100 µM | > 100 µM | > 100 µM |  |  |  |  |  |  |  |  |  |  |
| CCc1cccc(CC)c1NC(=O)CC1SC(N)=NC1=O (stereo not drawn) | > 100 µM | > 100 µM |  | > 100 µM | > 100 µM | > 100 µM | > 100 µM | > 100 µM |  |  |  |  |  |  |  |  |  |  |  |  |
| O=C(NS(=O)(=O)c1ccc(NC[C@H]2COCCO2)c([N+](=O)[O-])c1)c1ccc(N2CCN(CC3=C(c4ccc(Cl)cc4)CC4(CCC4)CC3)CC2)cc1Oc1cnc2[nH]ccc2c1 | 3.39 µM | 5.8 µM | 5.11 µM | 3.71 µM | 7.28 µM | 6.31 µM | 4.03 µM | 3.63 µM |  | 5.39 µM | 1.58 µM | 1.73 µM | 2.23 µM | 1.8 µM | 1.85 µM | 1.79 µM | 2.39 µM | 2.42 µM | 1.76 µM |  |
| C=C1c2[nH]c3ccccc3c2CC(C(=O)O)N1C(O)c1ccc(S(=O)(=O)O)cc1 (stereo not drawn) | > 100 µM | > 100 µM | > 100 µM | > 100 µM | > 100 µM | > 100 µM | > 100 µM | > 100 µM |  |  |  |  |  |  |  |  |  |  |  |  |
| COc1cc(/C=C/C(=O)c2c(C)nc3ccccc3c2C)ccc1OCCCCOc1cc2c(cc1OC)C(=O)N1CCC[C@H]1C=N2 | 0.647 µM | 3.22 µM | 1.44 µM | 6.93 µM | 2.57 µM | 0.929 µM | 3.35 µM |  | 0.873 µM | 0.482 µM | 0.214 µM | 0.528 µM | 1.46 µM | 0.331 µM |  | 1.71 µM | 0.872 µM | 0.188 µM | 0.334 µM | 0.274 µM |
| O=C1C(=C([O-])c2ccccc2)C(=O)c2ccccc21.O=C1C(=C([O-])c2ccccc2)C(=O)c2ccccc21.[Co+2] | > 100 µM | > 100 µM | > 100 µM | > 100 µM | > 100 µM | > 100 µM | > 100 µM | > 100 µM |  |  | > 100 µM | > 100 µM | > 100 µM | 57.3 µM | 82.1 µM | > 100 µM | > 100 µM |  | > 100 µM |  |
| CC(=O)Oc1c(Br)ccc2cc(C(Br)Br)c(C(=O)c3ccccc3)nc12 | 36.1 µM | 44.3 µM | 12.9 µM | 34.4 µM | 39.1 µM | 46 µM | 31.1 µM | 50.9 µM |  |  |  |  |  |  |  |  |  |  |  |  |
| O=C1NC(=O)C2C1C1C=C3c4ccccc4N(c4ccccc4)C32[C@H]2C(=O)NC(=O)[C@@H]12 (stereo partly drawn) | > 100 µM | > 100 µM | > 100 µM | > 100 µM | > 100 µM | > 100 µM | > 100 µM | > 100 µM |  |  |  |  |  |  |  |  |  |  |  |  |
| CC(=O)OCC1OC([Se-])C(OC(C)=O)C(OC(C)=O)C1OC(C)=O.N#CCC[PH+](CCC#N)CCC#N.[Au+] (stereo not drawn) | 60.5 µM | 39.4 µM | 55.6 µM | 68.8 µM | > 77.9 µM | > 100 µM | 41.9 µM | 28.9 µM |  |  | 9.01 µM | 9.81 µM | 7.06 µM | 16.2 µM | 4.34 µM | 25.2 µM | 10.9 µM |  | 21.3 µM |  |
| O=C([O-])CCc1ccccc1.O=C([O-])CCc1ccccc1.O=C([O-])CCc1ccccc1.O=C([O-])CCc1ccccc1.[Mo+2].[Mo+2] | > 100 µM | > 100 µM | > 100 µM |  | > 100 µM |  | > 100 µM | > 100 µM |  |  | > 100 µM | > 100 µM | > 100 µM | > 100 µM | > 100 µM |  | > 100 µM |  |  |  |
| COC(=O)[C@@H](C)C[C@H](Cc1ccccc1)NC(=O)c1csc([C@@H](C[C@H](C(C)C)N(C)C(=O)C2(NC(=O)[C@H]3CCCCN3C)CCC2)OC(C)=O)n1 | > 25 µM | > 25 µM |  | > 25 µM |  | > 25 µM | > 25 µM | > 25 µM | 0.00179 µM and < 0.0025 µM | 0.0157 µM | 0.0307 µM and 0.00667 µM | 0.0786 µM and 0.0099 µM | 0.0249 µM and 0.0193 µM |  | 0.00771 µM and 0.0025 µM | 0.0367 µM and 0.00706 µM | 0.00708 µM | 0.0025 µM | 0.00351 µM and 0.00319 µM | 0.000325 µM and < 0.0025 µM |
| NC(=S)N/N=C(\CCC(=O)Nc1ccccc1[N+](=O)[O-])CC(=O)c1ccco1 | > 100 µM | > 100 µM | > 100 µM | > 100 µM | > 100 µM | > 100 µM | > 100 µM | > 100 µM |  |  |  |  |  |  |  |  |  |  |  |  |
| O=c1c(O)cc2c(O)oc3c(=O)c(O)c(O)c4c(O)oc1c2c43 | > 100 µM | > 100 µM | > 100 µM | > 100 µM | > 100 µM | > 100 µM | > 100 µM | 34.1 µM |  |  |  |  |  |  |  |  |  |  |  |  |
| O=c1nc(N2CCCC2)nc(N2CCCC2)s1 | > 100 µM | > 100 µM | > 100 µM | > 100 µM | > 100 µM | > 100 µM | > 100 µM | > 100 µM |  |  |  |  |  |  |  |  |  |  |  |  |
| N#Cc1c(-c2ccccc2)cc(-c2cccs2)c(C#N)c1N |  | > 100 µM | > 100 µM | > 100 µM | > 100 µM | 55.2 µM |  | > 100 µM |  |  |  |  |  |  |  |  |  |  |  |  |
| CC(=O)N(CCN1C(=O)c2ccccc2C1=O)CCN1C(=O)c2ccccc2C1=O | > 100 µM | > 100 µM | > 100 µM | > 100 µM | > 100 µM | > 100 µM |  | > 100 µM |  |  |  |  |  |  |  |  |  |  |  |  |
| CCC1c2cc3n(c(=O)c2COC1O)Cc1c-3nc2ccccc2c1Cl (stereo not drawn) | > 100 µM | > 84 µM | > 100 µM | > 100 µM | > 100 µM | > 100 µM | > 100 µM | > 100 µM |  |  |  |  |  |  |  |  |  |  |  |  |
